# Experimental data from PMC3130777, “Phase I Hydroxylated Metabolites of the K2 Synthetic Cannabinoid JWH-018 Retain In Vitro and In Vivo Cannabinoid 1 Receptor Affinity and Activity” (PLoS ONE, 2011).
# “And” between values parts separate entries of the source, which are not always exact repeats. Equal entries are not always repeated. Where two headings read alike, the source gives them in different places.
# Tests used:
# NIH Swiss mice [1] = assay: Locomotor activity measured by radiotelemetry in mice; assay type: in vivo, mouse; conditions: for Locomotor activity (area under the curve) relative to vehicle controls: 10 h time course, n = 5
# NIH Swiss mice [2] = assay: Core body temperature measured by radiotelemetry in mice; assay type: in vivo, mouse; conditions: for Core body temperature area under the curve relative to vehicle controls: 0–10 hr, n = 5; for Depression in core body temperature compared with 30 mg/kg Δ^9-THC: 10 h time course
# CB1R [3] = biological target: T1, CB1R (Mus musculus, UniProt P47746); assay: biochemical; assay type: binding; conditions: for Fold higher CB1R affinity than Δ^9-THC: relative to Δ^9-THC Ki; for Displacement of [^3H]CP-55,940 from CB1Rs: mouse brain homogenates, data not shown
# T1 construct: CB1Rs are endogenously expressed in abundant quantities in the CNS; from tissue; host or cells: whole brain of B6SJL mice, crude membrane homogenates
# CB1R [4] = biological target: T1, CB1R; assay type: biochemical; conditions: for Agonist type at mCB1Rs (partial or full) / Level of G-protein stimulation relative to Δ^9-THC: 10 µM; for Agonist type at mCB1Rs (partial or full): compared with full agonist CP-55,940; for G-protein stimulation ([^35S]GTPγS bound): receptor saturating concentration (10 µM), Fig. 3A
# CB1R [5] = biological target: CB1R; design: method as in PMID 10940540, PMID 21079038; conditions: read-out: Ki values previously reported; cited from earlier work
# [6] = AM-251 10 mg/kg pretreatment, 30 mg/kg Δ^9-THC, 3 mg/kg JWH-018, 10 mg/kg M1 i.p.
# [7] = concentration-effect curve, Fig. 3B, n = 3–4
# [8] = Affinity (Ki) for CB1Rs, competition against 0.2 nM [^3H]CP-55,940, mouse whole brain membrane homogenates, mean ± SEM, n = 3–4
# T1 sequence (P47746 whole entry): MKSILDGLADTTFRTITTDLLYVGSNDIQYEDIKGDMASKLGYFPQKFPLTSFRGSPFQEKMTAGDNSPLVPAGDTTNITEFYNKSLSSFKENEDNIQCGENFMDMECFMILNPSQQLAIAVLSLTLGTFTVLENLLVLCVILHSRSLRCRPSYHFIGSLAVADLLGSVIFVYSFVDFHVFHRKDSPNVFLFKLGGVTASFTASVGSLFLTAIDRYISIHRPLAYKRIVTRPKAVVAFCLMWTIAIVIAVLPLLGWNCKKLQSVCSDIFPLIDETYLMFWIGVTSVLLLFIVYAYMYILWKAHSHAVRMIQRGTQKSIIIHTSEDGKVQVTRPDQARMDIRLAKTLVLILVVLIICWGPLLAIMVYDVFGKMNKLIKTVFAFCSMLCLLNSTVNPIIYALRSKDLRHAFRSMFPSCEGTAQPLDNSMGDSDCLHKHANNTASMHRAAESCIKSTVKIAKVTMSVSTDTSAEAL
Structure (SMILES),Agonist type at mCB1Rs (partial or full) (CB1R [4]),G-protein stimulation ([^35S]GTPγS bound) (CB1R [4]),Ki (CB1R [3]; [8]),Level of G-protein stimulation relative to Δ^9-THC (CB1R [4]),"Displacement of [^3H]CP-55,940 from CB1Rs (CB1R [3])",other results
"Cc1c(C(=O)NN2CCCCC2)nn(-c2ccc(Cl)cc2Cl)c1-c1ccc(I)cc1 [AM-251, reference compound]",,,,,,"Effect of Δ^9-THC, JWH-018 and M1 on locomotor activity after antagonist pretreatment (NIH Swiss mice [1]; [6]): significantly attenuated; Core body temperature after antagonist pretreatment of cannabinoid-treated mice (NIH Swiss mice [2]; [6]): restored core body temperature to control levels"
"CCCCCCC(C)(C)c1ccc([C@@H]2C[C@H](O)CC[C@H]2CCCO)c(O)c1 [CP-55,940, reference compound]",full,0.39 ± 0.02 pmol/mg,,,,"Ki (CB1R [3]; competition against 0.2 nM [^3H]CP-55,940, mouse whole brain membrane homogenates, mean ± SEM, n = 3–4, read-out: Affinity (Ki) for CB1Rs): 0.26 ± 0.12 nM; Maximal efficacy (Emax) of G-protein activation (CB1R [4]; [7]): 0.28 ± 0.02 pmol/mg; EC50 (CB1R [4]; concentration-effect curve, Fig. 3B, n = 3–4, read-out: EC50 of G-protein activation): 3.36 ± 2.35 nM"
"CCCCCn1cc(C(=O)c2cccc3ccccc23)c2ccccc21 [JWH-018, (1-pentyl-1H-indol-3-yl)-1-naphthalenyl-methanone]",full,0.29 ± 0.02 pmol/mg,1.2 nM and 1.22 nM,greater,,Fold higher CB1R affinity than Δ^9-THC (CB1R [3]): ~10 fold; Maximal efficacy (Emax) of G-protein activation (CB1R [4]; [7]): 0.29 ± 0.02 pmol/mg; Locomotor activity (area under the curve) relative to vehicle controls (NIH Swiss mice [1]; 3 mg/kg i.p.): significantly decrease; Core body temperature area under the curve relative to vehicle controls (NIH Swiss mice [2]; 3 mg/kg i.p.): significantly lower than vehicle controls; Depression in core body temperature compared with 30 mg/kg Δ^9-THC (NIH Swiss mice [2]; 3 mg/kg i.p.): greater depressions; Ki (CB1R [5]): 9 nM
"CCCCCn1cc(C(=O)c2cccc3ccccc23)c2c(O)cccc21 [M1, (4-hydroxy-1-pentyl-1H-indol-3-yl)(naphthalen-1-yl)methanone]",partial,,2.6 nM and 2.65 nM,greater,completely displaced,Fold higher CB1R affinity than Δ^9-THC (CB1R [3]): ~10 fold; Locomotor activity (area under the curve) relative to vehicle controls (NIH Swiss mice [1]; 10 mg/kg i.p.): significantly decrease; Core body temperature area under the curve relative to vehicle controls (NIH Swiss mice [2]; 10 mg/kg i.p.): significantly lower than vehicle controls; Depression in core body temperature compared with 30 mg/kg Δ^9-THC (NIH Swiss mice [2]; 10 mg/kg i.p.): greater depressions
"CCCCCn1cc(C(=O)c2cccc3ccccc23)c2cc(O)ccc21 [M2, (5-hydroxy-1-pentyl-1H-indol-3-yl)(naphthalen-1-yl)methanone]",full,0.32 ± 0.03 pmol/mg,4.22 ± 1.16 nM,greater,completely displaced,
"CCCCCn1cc(C(=O)c2cccc3ccccc23)c2ccc(O)cc21 [M3, (6-hydroxy-1-pentyl-1H-indol-3-yl)(naphthalen-1-yl)methanone]",full,,17.2 ± 3.58 nM,greater,completely displaced,
CCCCCn1cc(C(=O)c2cccc3ccccc23)c2cccc(O)c21 [M4],partial,,20.8 ± 4.85 nM,equivalent,completely displaced,
"O=C(c1cccc2ccccc12)c1cn(CCCCCO)c2ccccc12 [M5, (1-(5-hydroxypentyl)-1H-indol-3-yl)(naphthalen-1-yl)methanone]",full,,25.2 ± 4.99 nM,greater,completely displaced,
"O=C(O)CCCCn1cc(C(=O)c2cccc3ccccc23)c2ccccc21 [M6, 5-(3-(1-naphthoyl)-1H-indol-1-yl)pentanoic acid]",,,> 10000 nM,,,"Affinity (Ki) for CB1Rs (CB1R [3]; competition against 0.2 nM [^3H]CP-55,940, mouse whole brain membrane homogenates, mean ± SEM, n = 3–4): fails to bind"
